The values below come from patent US20230027075A1, “SULFONAMIDE COMPOUNDS TARGETING CD73 AND ADENOSINE RECEPTORS” (Aurigene Discovery Technologies Limited, priority 2019, published 2023).

Structures are written as SMILES. Counter-ions that a name gives are not always drawn. Where only a bound is given, the exact number is not on record here.

The target in assay [1] is T1, human-CD73 (Trp27-Lys547, His-tag) (Homo sapiens, UniProt P21589).
T1 construct: human-CD73 (Trp27-Lys547, His-tag); His-tag
T1 sequence (P21589 27-547): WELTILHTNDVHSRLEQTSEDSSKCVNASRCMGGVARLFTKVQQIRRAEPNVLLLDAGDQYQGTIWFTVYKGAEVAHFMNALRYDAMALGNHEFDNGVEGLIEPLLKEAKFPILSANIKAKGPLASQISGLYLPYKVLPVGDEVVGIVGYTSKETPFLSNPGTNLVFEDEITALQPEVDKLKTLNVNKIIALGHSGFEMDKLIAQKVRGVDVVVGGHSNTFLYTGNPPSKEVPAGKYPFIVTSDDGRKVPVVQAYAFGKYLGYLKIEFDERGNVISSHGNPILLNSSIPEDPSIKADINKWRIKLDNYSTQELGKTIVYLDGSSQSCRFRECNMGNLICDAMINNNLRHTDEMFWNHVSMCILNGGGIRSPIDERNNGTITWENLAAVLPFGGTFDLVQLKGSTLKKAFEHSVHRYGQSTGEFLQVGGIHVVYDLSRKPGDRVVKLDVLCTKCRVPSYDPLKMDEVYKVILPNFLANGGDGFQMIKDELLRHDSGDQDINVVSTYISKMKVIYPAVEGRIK
Description: CD73 biochemical assay (colorimetric, Malachite Green phosphate detection). The conditions noted are these: 2 nM CD73, 50 μM AMP; for inhibition at 20 µM: read-out: % inhibition at 20 μM (Percent inhibition data in CD73); for IC50: four-parameter curve fit, read-out: Potency (IC50 values) of selected compounds in CD73, group. On the procedure: A colorimetric-based method was used for assaying compounds of the invention for CD73 enzyme inhibitory activity. Human CD73 catalyzes the conversion of AMP to adenosine with the release of orthophosphate. A Malachite Green Phosphate Detection kit is used to measure the formation of orthophosphate product. […] A compound of the present invention and enzyme are incubated for 30 minutes at room temperature. Next, 20 μL of AMP in assay buffer is added to the plate. The final concentration of CD73 and AMP are 2 nM and 50 μM respectively. Following 30 minutes reaction at room temperature, 20 μL of Malachite reagent is added to all the reaction wells. The formation of green complex formed between Malachite Green, molybdate and free orthophosphate is measured on a plate reader (620 nm).

For assay [2], the target named is T2, A2aR (Homo sapiens, UniProt P29274).
T2 construct: expressed in transfected cells
Description: A2aR biochemical assay (TR-FRET binding, Tag-lite A2aR labelled cells, fluorescent antagonist). The settings on record: 10 nM fluorescent A2aR antagonist; for inhibition at 20 µM: 20 μM compound, vs DMSO control, read-out: % inhibition at 20 μM (Percent inhibition data in A2aR); for IC50: four-parameter curve fit, read-out: Potency (IC50 values) of selected compounds in A2aR, group. On the procedure:
The compounds of present invention were assayed for A2aR enzyme binding activity in a TR-FRET based method. Typically, 10 μL of A2aR labelled cells in assay buffer (Tag-lite, 1×) is added to a 384-well plate containing 5 μL of a compound of present invention in final 1% DMSO, serially diluted in 1:5 in a 5-6 point titration. The aforesaid compound and cells are incubated for 30 minutes at room temperature. Next, 5 μL of A2aR antagonist (fluorescent ligand) in assay buffer is added to the plate. The final concentration of A2aR antagonist is 10 nM. Following 30 minutes reaction at room temperature, the plate was read on a plate reader (Ex: 340 nm Em: 615 nm and 665 nm) to measure the binding of test compound to A2aR cells. The results are interpreted as percentage inhibition as presented in Table-2A of binding by the test compound with respect to the DMSO control.
In general terms: Time-resolved FRET reads energy transfer from a long-lived donor to a nearby acceptor.

T2 sequence (P29274 whole entry): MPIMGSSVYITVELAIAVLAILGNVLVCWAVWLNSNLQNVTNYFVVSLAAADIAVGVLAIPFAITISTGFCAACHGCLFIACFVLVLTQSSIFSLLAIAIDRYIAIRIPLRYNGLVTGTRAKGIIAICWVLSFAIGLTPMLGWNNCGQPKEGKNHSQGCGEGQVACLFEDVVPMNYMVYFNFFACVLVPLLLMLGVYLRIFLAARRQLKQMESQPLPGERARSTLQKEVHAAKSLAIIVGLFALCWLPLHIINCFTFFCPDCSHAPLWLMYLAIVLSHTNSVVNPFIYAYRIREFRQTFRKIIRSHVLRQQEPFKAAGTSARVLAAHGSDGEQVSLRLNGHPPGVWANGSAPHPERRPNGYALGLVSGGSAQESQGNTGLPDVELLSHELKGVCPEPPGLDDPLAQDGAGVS

What is called inhibition is the relative decrease from the control value, in per cent. As usually defined, the IC50 is the concentration needed to halve the response being measured. In the case of `NC(=O)c1cc(S(=O)(=O)Nc2ccc(CCCCNc3nc(N)n4nc(-c5ccco5)nc4n3)cc2)cc(Cl)c1O` [Example A18, 5-(N-(4-(4-((7-amino-2-(furan-2-yl)-[1,2,4]triazolo[1,5-a][1,3,5]triazin-5-yl)amino)butyl)phenyl)sulfamoyl)-3-chloro-2-hydroxybenzamide], the inhibition at 20 µM in assay [1] (20 μM compound) was 87%; in assay [2] it was 82%. The IC50 in assay [1] was more than 1000 nM.
For `NC(=O)c1cc(S(=O)(=O)Nc2ccc3ccn(CCNc4nc(N)n5nc(-c6ccco6)nc5n4)c3c2)cc(Cl)c1O` [Example D1, 5-(N-(1-(2-((7-amino-2-(furan-2-yl)-[1,2,4]triazolo[1,5-a][1,3,5]triazin-5-yl)amino)ethyl)-1H-indol-6-yl)sulfamoyl)-3-chloro-2-hydroxybenzamide], in that order: 49%, 85% and 110 to 1000 nM.
For `NC(=O)c1cc(S(=O)(=O)Nc2ccc(CCCOc3cc(N)n4nc(-c5ccco5)nc4n3)cc2)cc(Cl)c1O` [Example A21, 5-(N-(4-(3-((7-amino-2-(furan-2-yl)-[1,2,4]triazolo[1,5-a]pyrimidin-5-yl)oxy)propyl)phenyl)sulfamoyl)-3-chloro-2-hydroxybenzamide], in that order: 98%, 82% and 110 to 1000 nM.
For `Nc1nc(NCCc2ccc(NS(=O)(=O)c3ccc(O)c(C(F)(F)F)c3)cc2)nc2nc(-c3ccco3)nn12` [Example A10, N-(4-(2-((7-amino-2-(furan-2-yl)-[1,2,4]triazolo[1,5-a][1,3,5]triazin-5-yl)amino)ethyl)phenyl)-4-hydroxy-3-(trifluoromethyl)benzenesulfonamide], the inhibition at 20 µM in assay [1] (20 μM compound) amounted to 17%; in assay [2] it was 88%.
As to `NC(=O)c1cc(S(=O)(=O)Nc2ccc(CCCNc3nc(N)n4nc(-c5ccco5)nc4n3)c(O)c2)cc(Cl)c1O` [Example A13, 5-(N-(4-(3-((7-amino-2-(furan-2-yl)-[1,2,4]triazolo[1,5-a][1,3,5]triazin-5-yl)amino)propyl)-3-hydroxyphenyl)sulfamoyl)-3-chloro-2-hydroxybenzamide], the inhibition at 20 µM in assay [1] (20 μM compound) was determined as 97%; in assay [2] it was 83%. Moreover, the IC50 was less than 100 nM in assay [1] and 25.1 to 50 nM in assay [2].
Turning to `NC(=O)c1cc(S(=O)(=O)Nc2cccc3c2cnn3CCNc2nc(N)n3nc(-c4ccco4)nc3n2)cc(Cl)c1O` [Example D2, 5-(N-(1-(2-((7-amino-2-(furan-2-yl)-[1,2,4]triazolo[1,5-a][1,3,5]triazin-5-yl)amino)ethyl)-1H-indazol-4-yl)sulfamoyl)-3-chloro-2-hydroxybenzamide], the inhibition at 20 µM in assay [1] (20 μM compound) was 62%; in assay [2], 79%. Also, the IC50 in assay [1] is more than 1000 nM.
The like results for `NC(=O)c1cc(S(=O)(=O)Nc2ccc(CCCNc3cc(N)n4nc(-c5ccco5)nc4n3)c(F)c2)cc(Cl)c1O` [Example A22, 5-(N-(4-(3-((7-amino-2-(furan-2-yl)-[1,2,4]triazolo[1,5-a]pyrimidin-5-yl)amino)propyl)-3-fluorophenyl)sulfamoyl)-3-chloro-2-hydroxybenzamide] were, in that order, 95%, 81% and less than 100 nM.
`NC(=O)c1cc(S(=O)(=O)Nc2ccc(NCCNc3nc(N)n4nc(-c5ccco5)nc4n3)cc2)cc(Cl)c1O` [Example C1, 5-(N-(4-((2-((7-amino-2-(furan-2-yl)-[1,2,4]triazolo[1,5-a][1,3,5]triazin-5-yl)amino)ethyl)amino)phenyl)sulfamoyl)-3-chloro-2-hydroxybenzamide]: the inhibition at 20 µM is 100% in assay [1] (20 μM compound) and 81% in assay [2]. In addition, the IC50 in assay [1] was 110 to 1000 nM; in assay [2], less than 25 nM.
As to `COc1c(Cl)cc(S(=O)(=O)Nc2ccc(CCCNc3nc(N)n4nc(-c5ccco5)nc4n3)cc2)cc1C(N)=O` [Example A16, 5-(N-(4-(3-((7-amino-2-(furan-2-yl)-[1,2,4]triazolo[1,5-a][1,3,5]triazin-5-yl)amino)propyl)phenyl)sulfamoyl)-3-chloro-2-methoxybenzamide], the inhibition at 20 µM was 63% in assay [1] (20 μM compound) and 83% in assay [2].
As to `CN(CCCc1ccc(NS(=O)(=O)c2cc(Cl)c(O)c(C(N)=O)c2)cc1)c1nc(N)n2nc(-c3ccco3)nc2n1` [Example A17, 5-(N-(4-(3-((7-amino-2-(furan-2-yl)-[1,2,4]triazolo[1,5-a][1,3,5]triazin-5-yl)(methyl)amino)propyl)phenyl)sulfamoyl)-3-chloro-2-hydroxybenzamide], the inhibition at 20 µM in assay [1] (20 μM compound) is 95%; in assay [2], 82%. Also, the IC50 in assay [1] lay in the range of 110 to 1000 nM.
Regarding `NC(=O)c1cc(S(=O)(=O)Nc2cccc(NCCNc3nc(N)n4nc(-c5ccco5)nc4n3)c2)cc(Cl)c1O` [Example C2, 5-(N-(3-((2-((7-amino-2-(furan-2-yl)-[1,2,4]triazolo[1,5-a][1,3,5]triazin-5-yl)amino)ethyl)amino)phenyl)sulfamoyl)-3-chloro-2-hydroxybenzamide], in assay [2], the inhibition at 20 µM turned out to be 85%.
Turning to `NC(=O)c1cc(S(=O)(=O)Nc2ccc(CCCNc3nc(N)n4nc(-c5ccco5)nc4n3)c(F)c2)cc(Cl)c1O` [Example A14, 5-(N-(4-(3-((7-amino-2-(furan-2-yl)-[1,2,4]triazolo[1,5-a][1,3,5]triazin-5-yl)amino)propyl)-3-fluorophenyl)sulfamoyl)-3-chloro-2-hydroxybenzamide], the inhibition at 20 µM amounted to 94% in assay [1] (20 μM compound) and 82% in assay [2]. In assay [1], the IC50 is less than 100 nM.
The % inhibition is the relative decrease from the control value, in per cent. For the compound `NC(=O)c1cc(S(=O)(=O)Nc2ccc(CCCNc3nc(N)n4nc(-c5ccco5)nc4n3)cc2)cc(Cl)c1O` [Example A26, 5-(N-(4-(3-((7-amino-2-(furan-2-yl)-[1,2,4]triazolo[1,5-a][1,3,5]triazin-5-yl)amino)propyl)phenyl)sulfamoyl)-3-chloro-2-hydroxybenzamide sodium salt], the “% inhibition at 20 μM (Percent inhibition data in CD73)” value in assay [1] (20 μM compound, sodium salt) came to 96%. Besides, in assay [2], the inhibition at 20 µM is 80%.
In the case of `CC(=O)Nc1nc(NCCc2ccc(NS(=O)(=O)c3cc(Cl)c(O)c(C(N)=O)c3)cc2)nc2nc(-c3ccco3)nn12` [Example A8, 5-(N-(4-(2-((7-acetamido-2-(furan-2-yl)-[1,2,4]triazolo[1,5-a][1,3,5]triazin-5-yl)amino)ethyl)phenyl)sulfamoyl)-3-chloro-2-hydroxybenzamide], the inhibition at 20 µM in assay [1] (20 μM compound) was 70%; in assay [2] it was 81%.
Take `Nc1nc(NCCc2ccc(NS(=O)(=O)c3cc(Cl)c4c(c3)C(Cl)(Cl)C(=O)N4)cc2)nc2nc(-c3ccco3)nn12` [Example B2, N-(4-(2-((7-amino-2-(furan-2-yl)-[1,2,4]triazolo[1,5-a][1,3,5]triazin-5-yl)amino)ethyl)phenyl)-3,3,7-trichloro-2-oxoindoline-5-sulfonamide]: the inhibition at 20 µM in assay [1] (20 μM compound) amounted to 39%; in assay [2], 79%.
Turning to `NC(=O)c1cc(S(=O)(=O)Nc2ccc(CCCNc3cc(N)n4nc(-c5ccco5)nc4n3)cc2F)cc(Cl)c1O` [Example A23, 5-(N-(4-(3-((7-amino-2-(furan-2-yl)-[1,2,4]triazolo[1,5-a]pyrimidin-5-yl)amino)propyl)-2-fluorophenyl)sulfamoyl)-3-chloro-2-hydroxybenzamide], in assay [2], the inhibition at 20 µM was found to be 78% and the half-maximal inhibitory concentration (IC50) is more than 50 nM.
As for `Nc1nc(NCCc2ccc(NS(=O)(=O)c3cc(Cl)c4[nH]ccc(=O)c4c3)cc2)nc2nc(-c3ccco3)nn12` [Example B3, N-(4-(2-((7-amino-2-(furan-2-yl)-[1,2,4]triazolo[1,5-a][1,3,5]triazin-5-yl)amino)ethyl)phenyl)-8-chloro-4-oxo-1,4-dihydroquinoline-6-sulfonamide], the inhibition at 20 µM amounted to 9% in assay [1] (20 μM compound) and 88% in assay [2].
